Measurements: US8227618B2, “Amine-derivatives having NPY Y5 receptor antagonistic activity and the uses thereof” (Shionogi & Co., Ltd., priority 2009, dated 2012)

Experiments:
[1] = target: T1, mouse NPY Y5 receptor (Mus musculus, UniProt O70342); assay: Affinity for mouse NPY Y5 receptor ([125I] peptide YY binding, CHO cell membranes); details: CHO membranes expressing mouse NPY Y5 receptor, [125I] peptide YY 60 pM
T1 construct: expressed in transfected cells
T1 sequence (O70342 1-466): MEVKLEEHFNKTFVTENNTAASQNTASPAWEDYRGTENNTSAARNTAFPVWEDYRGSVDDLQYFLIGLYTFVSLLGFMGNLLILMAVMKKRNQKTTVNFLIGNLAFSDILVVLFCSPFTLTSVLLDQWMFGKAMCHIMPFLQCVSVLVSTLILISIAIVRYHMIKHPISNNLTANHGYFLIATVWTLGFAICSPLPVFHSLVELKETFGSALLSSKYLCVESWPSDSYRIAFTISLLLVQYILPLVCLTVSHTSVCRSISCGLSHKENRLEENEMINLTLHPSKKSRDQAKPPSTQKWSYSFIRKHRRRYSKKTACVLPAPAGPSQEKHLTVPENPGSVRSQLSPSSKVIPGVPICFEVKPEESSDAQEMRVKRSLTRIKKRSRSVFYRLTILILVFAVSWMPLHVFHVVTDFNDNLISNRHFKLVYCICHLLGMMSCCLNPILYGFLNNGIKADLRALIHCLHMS
Description: cDNA sequence encoding a mouse NPY Y5 receptor (Biochim. Biophys. Acta 1328:83-89, 1997) was cloned in a vector (pME18S, Takebe et al. Mol. Cell. Biol. 8, 466-472). The obtained expression vector was transfected into CHO cells as a host by using Lipofect AMINE reagent (Trademark, Gico BRL Co., Ltd.) according to the instruction manual. The cells that stably express mouse NPY Y5 receptor were obtained.
The membranes prepared from the CHO cells expressing mouse NPY Y5 receptor, the compound of this invention and 30,000 cpm [^125I] peptide YY (60 pM of final concentration: Amersham) were incubated in the assay buffer (20 mM HEPES-Hanks buffer containing 0.1% bovine serum albumin, pH 7.4) at 25° C. for 2 hours, and then the membrane was filtered from the mixture through a glassfilter (GF/C) presoaked with 1% polyethyleneimine. After washing with 50 mM Tris-HCl buffer (pH 7.4), radioactivity retained on the filters was quantified with a gamma counter.
Nonspecific binding was defined as the amount of radioactivity bound to the membranes after incubation in the presence of 200 nM of peptide YY. The 50% inhibitory concentration of the test compound against the specific peptide YY binding (IC50 value) was calculated (Inui, A. et al. Endocrinology 131, 2090-2096 (1992)).

[2] = target: T2, NPY Y5 receptor (Mus musculus, UniProt O70342); assay: Inhibition of Y5 agonist-induced food intake in mice; assay type: in vivo, C57BL/6J mice; details: 4 hours after dosing
T2 construct: from tissue; host or cells: brain of living male C57BL/6J mice
T2 sequence (O70342 1-466): T1 sequence (O70342 1-466)
Method: Under diethylether anesthesia the skull of male C57BL/6J mice (12-14 week old, 25-30 g) was exposed by making an incision about 1-cm long from external occipital crest to nasal dorsum, and then drilled in the 1-mm lateral position to the left following 1-mm posterior from bregma. After recovery from anesthesia mice were dosed with either 0.5% hydroxypropylmethyl cellulose solution (vehicle, Shin-Etsu Chemical Co., Ltd) or the compounds of this invention suspended in the 0.5% hydroxypropylmethyl cellulose solution. At one hour after the treatment, each animal received saline or a NPY Y5 receptor specific agonist, [cPP^1-7, NPY^19-23, Ala^31, Aib^32, Gln^34]-hPancreatic Polypeptide (0.1 nmol/1.5 μL saline/mouse) through the skull opening using a canula. Residual food was measured at 2 and 4 hours after the treatment. The inhibition ratio of Y5 agonist-induced food intake by the compounds was calculated as follows; inhibition ratio (%)=[1−(food intake (g) by the compound treated and Y5 agonist received mice−food intake (g) by the vehicle treated and saline received mice)/(food intake (g) by the vehicle treated and Y5 agonist received mice−food intake (g) by the vehicle treated and saline received mice)]×100.

[3] = target: T3, P-gp (Mus musculus, UniProt P21447); assay: Potential for drug-drug interactions through P-gp in vivo (Kp with/without cyclosporin A); details: mice, Kp with versus without cyclosporin A (20 mg/kg)
T3 construct: effectively excreted through P-gp from the brain to vessels; from tissue; host or cells: brain / blood-brain barrier of living C57BL/6J mice
T3 sequence (P21447 whole entry): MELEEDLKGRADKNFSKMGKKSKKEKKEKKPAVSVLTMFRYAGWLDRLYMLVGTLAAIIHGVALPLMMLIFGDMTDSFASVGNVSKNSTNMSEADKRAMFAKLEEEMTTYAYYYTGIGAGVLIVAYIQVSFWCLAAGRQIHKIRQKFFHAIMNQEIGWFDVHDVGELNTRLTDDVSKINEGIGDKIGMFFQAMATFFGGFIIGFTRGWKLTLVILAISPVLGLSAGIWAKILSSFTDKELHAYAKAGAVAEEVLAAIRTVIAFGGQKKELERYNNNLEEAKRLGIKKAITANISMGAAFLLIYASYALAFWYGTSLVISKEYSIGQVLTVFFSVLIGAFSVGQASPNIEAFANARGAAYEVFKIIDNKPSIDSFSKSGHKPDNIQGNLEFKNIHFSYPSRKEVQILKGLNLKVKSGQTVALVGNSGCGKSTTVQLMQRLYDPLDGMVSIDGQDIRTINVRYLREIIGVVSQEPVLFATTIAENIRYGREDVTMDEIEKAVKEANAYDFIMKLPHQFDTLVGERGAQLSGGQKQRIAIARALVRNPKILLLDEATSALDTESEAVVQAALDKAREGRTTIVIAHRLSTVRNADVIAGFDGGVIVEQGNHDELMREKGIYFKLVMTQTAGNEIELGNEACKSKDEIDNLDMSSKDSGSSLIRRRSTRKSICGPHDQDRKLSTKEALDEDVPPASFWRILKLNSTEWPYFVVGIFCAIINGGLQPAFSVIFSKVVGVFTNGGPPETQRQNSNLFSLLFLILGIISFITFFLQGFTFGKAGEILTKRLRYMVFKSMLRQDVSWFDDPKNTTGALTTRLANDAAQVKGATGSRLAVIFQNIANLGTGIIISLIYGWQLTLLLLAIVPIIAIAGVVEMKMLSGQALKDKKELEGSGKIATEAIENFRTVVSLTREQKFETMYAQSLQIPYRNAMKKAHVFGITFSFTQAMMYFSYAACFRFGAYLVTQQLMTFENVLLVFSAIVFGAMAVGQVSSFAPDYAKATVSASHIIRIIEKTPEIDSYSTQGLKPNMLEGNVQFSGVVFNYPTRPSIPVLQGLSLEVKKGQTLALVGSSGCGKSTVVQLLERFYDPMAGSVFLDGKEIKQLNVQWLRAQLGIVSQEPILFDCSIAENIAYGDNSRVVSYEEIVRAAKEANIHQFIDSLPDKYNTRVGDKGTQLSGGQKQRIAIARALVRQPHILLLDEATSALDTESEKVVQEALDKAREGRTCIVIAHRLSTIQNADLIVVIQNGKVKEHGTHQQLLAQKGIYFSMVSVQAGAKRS
Method: To examine the potential for drug-drug interactions through P-gp in vivo, the Kp values of compounds of this invention with (KpCSA) or without (KpCont.) cyclosporin A (20 mg/kg), a P-gp inhibitor, were calculated. The KpCSA value of Compound (I-72) was 1.14, and the calculated KpCSA KpCont. ratio was 0.9.
On the other hand the potential for drug-drug interactions through P-pg of amide compound B which has similar structure of Compound (1-72) was also examined in mice. The KpCont. and KpCSA were 0.04 and 0.84, respectively.

[4] = Suppression of body weight gain in high-fat diet-induced obese mice; assay type: in vivo, C57BL/6J mice; details: 6 mg/kg b.i.d. for 3 weeks, versus vehicle
Method: Prior to administration of the compounds of this invention, male C57BL/6J mice were given a high-fat diet to induce obese. The high-fat diet-induced obese mice (13-14 week old, body weight 28-33 g) were dosed with 0.5% hydroxypropylmethyl cellulose solution (vehicle, Shin-Etsu Chemical Co., Ltd) or the compounds of this invention suspended in the 0.5% hydroxypropylmethyl cellulose solution twice a day (b.i.d.) for 3 weeks with the same diet. The changes in body weight were monitored daily.

[5] = rows without asterisk (6 mg/kg per text)

| Structure (SMILES) | IC50 [1] [nM] | Inhibition ratio of Y5 agonist-induced food intake [2, 5] [%] | other results |
| --- | --- | --- | --- |
| CC(C)S(=O)(=O)NC[C@H]1CC[C@H](Nc2nc3cc(Cl)ccc3s2)CC1 [Ij-154] | 0.17 | 81.3 |  |
| C[C@@H]1CN(c2ccc(NC(=O)[C@H]3CC[C@H](NS(=O)(=O)C(C)(C)C)CC3)cc2)C[C@H](C)O1 [B, reference compound] |  |  | KpCSA/KpCont. ratio [3]: 20.5 |
| CCS(=O)(=O)N[C@H]1CC[C@H](CNc2ccc(S(=O)(=O)c3ccc(F)cc3)cc2)CC1 [Ii-34] | 11 |  |  |
| CCCn1c(=O)oc2cc(NC[C@H]3CC[C@H](NS(=O)(=O)CC)CC3)ccc21 [Ii-16] | 1.2 |  |  |
| C[C@@H]1CN(c2ccc(NC[C@H]3CC[C@H](NS(=O)(=O)C(C)(C)C)CC3)cc2)C[C@H](C)O1 [Compound I-72] |  |  | KpCSA/KpCont. ratio [3]: 0.9 |
| CCS(=O)(=O)NC[C@H]1CC[C@H](Nc2ccn(-c3ccccc3F)n2)CC1 [Ij-112] |  |  | Body weight gain [4]: suppresses Body Weight Gain |
| CC(C)S(=O)(=O)NC[C@H]1CC[C@H](Nc2ccc(OC3CCCC3)nn2)CC1 [Ij-52] | 0.99 |  |  |
| CC(C)S(=O)(=O)NC[C@H]1CC[C@H](Nc2nc3cc(F)ccc3o2)CC1 [Ij-155] | 0.88 |  | Inhibition ratio of Y5 agonist-induced food intake ([2]; *Dose: 1.5 mg/kg): 56.1%* |
| CC1CC(C)CN(c2cccc(NC[C@H]3CC[C@H](NS(=O)(=O)C(C)(C)C)CC3)c2)C1 (stereo partly shown) [Ii-1] | 0.1 |  |  |
| CCC(C)S(=O)(=O)NC[C@H]1CC[C@H](Nc2nc3cc(F)ccc3o2)CC1 (stereo partly shown) [Ij-160] | 0.55 |  | Inhibition ratio of Y5 agonist-induced food intake ([2]; *Dose: 1.5 mg/kg): 36.6%* |
| CC(C)S(=O)(=O)N[C@H]1CC[C@H](CNc2cc(F)cc(N3CCOCC3)c2)CC1 [Ii-55] |  | 64.3 |  |
| CCC(C)S(=O)(=O)NC[C@H]1CC[C@H](Nc2nc3ccc(F)cc3o2)CC1 (stereo partly shown) [Ij-161] | 0.69 |  | Inhibition ratio of Y5 agonist-induced food intake ([2]; *Dose: 1.5 mg/kg): 15.8%* |

The next lines start with results.

| IC50 [1] [nM] | Inhibition ratio of Y5 agonist-induced food intake [2, 5] [%] | Structure (SMILES) | other results |
| --- | --- | --- | --- |
| 0.39 |  | CC(C)(C)S(=O)(=O)NC[C@H]1CC[C@H](Nc2nc3ccc(C(F)(F)F)cc3s2)CC1 [Ij-66] |  |
| 0.7 |  | CC(C)S(=O)(=O)NC[C@H]1CC[C@H](Nc2ccc(C(F)(F)F)cn2)CC1 [Ij-1] |  |
| 0.16 |  | CC(C)S(=O)(=O)NC[C@H]1CC[C@H](Nc2ccn(-c3ccccc3Cl)n2)CC1 [Ij-157] |  |
| 0.12 | 73.0 | CC(C)S(=O)(=O)NC[C@H]1CC[C@H](Nc2nc3cccc(F)c3s2)CC1 [Ij-153] |  |
| 4.66 | 25.3 | CCS(=O)(=O)NC[C@H]1CC[C@H](Nc2nc3ccccc3o2)CC1 [Ij-150] |  |
|  | 90.3 | CC(C)(C)S(=O)(=O)NC[C@H]1CC[C@H](Nc2ccn(-c3ccccc3F)n2)CC1 [Ij-110] |  |
|  | 88.2 | CCS(=O)(=O)NC[C@H]1CC[C@H](Nc2ccc(-c3ccccc3)cn2)CC1 [Ij-4] |  |
| 0.92 | 62.6 | CCS(=O)(=O)NC[C@H]1CC[C@H](Nc2nc3ccccc3s2)CC1 [Ij-149] |  |
| 0.6 | 83.2 | CC(C)(C)S(=O)(=O)NC[C@H]1CC[C@H](Nc2nc3ccc(F)cc3o2)CC1 [Ij-159] |  |
|  | 76.2 | Cn1c(=O)oc2cc(NC[C@H]3CC[C@H](NS(=O)(=O)C(C)(C)C)CC3)cc(F)c21 [Ii-45] | Body weight gain [4]: suppresses Body Weight Gain |
| 0.35 |  | CC(C)S(=O)(=O)NC[C@H]1CC[C@H](Nc2nc3ccc(F)cc3s2)CC1 [Ij-152] | Inhibition ratio of Y5 agonist-induced food intake ([2]; *Dose: 1.5 mg/kg): 62.6%* |
| 0.12 |  | CC(C)S(=O)(=O)NC[C@H]1CC[C@H](Nc2nc3cc(F)ccc3s2)CC1 [Ij-151] | Inhibition ratio of Y5 agonist-induced food intake ([2]; *Dose: 1.5 mg/kg): 78.4%* |
| 0.85 | 70.5 | CC(C)(C)S(=O)(=O)NC[C@H]1CC[C@H](Nc2nc3cc(F)ccc3o2)CC1 [Ij-158] |  |
| 2.5 |  | CC(C)(C)S(=O)(=O)NC[C@H]1CC[C@H](Nc2ccc3ccccc3n2)CC1 [Ij-59] |  |
| 0.68 |  | CC(C)S(=O)(=O)NC[C@H]1CC[C@H](Nc2nc3ccc(F)cc3o2)CC1 [Ij-156] | Inhibition ratio of Y5 agonist-induced food intake ([2]; **Dose: 12.5 mg/kg): 90.4%** |
